From patent US10010614B2, “Derivatives of GLP-1 like peptides, and uses thereof” (Novo Nordisk A/S, priority 2013, dated 2018)
Where two headings read alike, the source gives them in different places. Numbered stars: 1 amine (or outer) side, 2 acyl side, 3 side chain; on linkers, the order of the positions; unused ones are H or OH. Square brackets hold non-standard residues; d marks the D form. Side chains are listed from the residue outwards. Peptide text beside a SMILES is read from it. * marks the point of attachment. C22 diacid = O=C(O)CCCCCCCCCCCCCCCCCCCCC(=O)*; C20 diacid = O=C(O)CCCCCCCCCCCCCCCCCCC(=O)*; γGlu = O=C(O)[C@H](CCC(=O)[*:2])N[*:1]; εLys = N[C@@H](CCCCN[*:1])C(=O)[*:2]; Trx = NC[C@H]1CC[C@H](C(=O)O)CC1; AEEA = NCCOCCOCC(=O)O; Aib = CC(C)(N)C(=O)O

How the values were obtained:
[1] = molecular target: T1, human GLP-1 receptor (Homo sapiens, UniProt P43220); assay: GLP-1 receptor binding, competitive binding assay (125I-GLP-1, SPA) on isolated membranes;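 also: test compounds added at a range of concentrations to membranes from cells expressing the human GLP-1 receptor, scored by displacement of labelled ligand, read with WGA SPA beads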
T1 construct: expressed in transfected cells; host or cells: membranes prepared from BHK cells (parent line BHKTS13), clone FCW467-12A

[2] = molecular target: T1, human GLP-1 receptor; assay: In vitro potency, CRE luciferase reporter gene assay in BHK cells expressing the human GLP-1 receptor; format: cell-based; details: whole cell reporter gene assay, 3 h incubation, no HSA, averages of at least two replicates
In short: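 Stably transfected BHK cells (5×10^3/well) expressing human GLP-1R with a CRE-luciferase reporter; compounds diluted in buffer with 2% ovalbumin and 0.2% Pluronic F-68, final 1×10^−7 to 1×10^−14 M. Incubated 3 h at 37 °C, 5% CO2, then luminescence read; potency from non-linear log(agonist)–response fit, mean of ≥2 replicates.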

[3] = Pharmacokinetic study in minipigs (i.v.); format: in vivo; details: male, Göttingen, minipig, plasma, iv; read-out: Terminal half-live (converted)
Experimental: The purpose of this study is to determine the protraction in vivo of the GLP-1 derivatives after i.v. administration to minipigs, i.e. the prolongation of their time in the body and thereby their time of action. This is done in a pharmacokinetic (PK) study, where the terminal half-life of the derivative in question is determined. By terminal half-life is meant the time it takes to halve a certain plasma concentration in the terminal elimination phase.
The derivatives of Examples 1-5 were dosed with 2 nmol/kg, the derivative of Example 6 was dosed with 5 nmol/kg, and the derivatives of Examples 7-9 were dosed with 15 nmol/kg.
Male Göttingen minipigs were obtained from Ellegaard Göttingen Minipigs (Dalmose, Denmark) approximately 7-14 months of age and weighing approximately 16-35 kg were used in the studies. The minipigs were housed either individually (pigs with permanent catheters) or in a group and fed restrictedly once or twice daily with SDS minipig diet (Special Diets Services, Essex, UK).
After at least 2 weeks of acclimatisation two permanent central venous catheters were implanted in vena cava caudalis or cranialis in each animal. The animals were allowed 1 week recovery after the surgery, and were then used for repeated pharmacokinetic studies with a suitable wash-out period between successive GLP-1 derivative dosings.
The GLP-1 derivatives were dissolved in 50 mM sodium phosphate, 70-145 mM sodium chloride, 0.05% tween 80, pH 7.4 to a concentration of usually from 20-60 nmol/ml.
Intravenous injections (the volume corresponding to for example 0.050-0.125 ml/kg) of the compounds were given through one catheter or through the venflon, and blood was sampled at predefined time points for up till 25 days post dosing (preferably through the other catheter or by venipuncture). Blood samples (for example 0.8 ml) were collected in EDTA buffer (8 mM) and then centrifuged at 4° C. and 1942G for 10 minutes.
Plasma was pipetted into Micronic tubes on dry ice, and kept at −20° C. until analysed for plasma concentration of the respective GLP-1 compound using LOCI. Individual plasma concentration-time profiles were analyzed by a non-compartmental pharmacokinetic method in Phoenix v. 6.2 (Pharsight Inc., Mountain View, Calif., USA), or other relevant software for PK analysis, and the resulting terminal half-lives (harmonic mean) determined.

[4] = High HSA IC50 (nM), high serum albumin (2.0% HSA final assay concentration)
[5] = Low HSA IC50 (nM), low serum albumin (max. 0.001% final assay concentration)

T1 sequence (P43220 24-463): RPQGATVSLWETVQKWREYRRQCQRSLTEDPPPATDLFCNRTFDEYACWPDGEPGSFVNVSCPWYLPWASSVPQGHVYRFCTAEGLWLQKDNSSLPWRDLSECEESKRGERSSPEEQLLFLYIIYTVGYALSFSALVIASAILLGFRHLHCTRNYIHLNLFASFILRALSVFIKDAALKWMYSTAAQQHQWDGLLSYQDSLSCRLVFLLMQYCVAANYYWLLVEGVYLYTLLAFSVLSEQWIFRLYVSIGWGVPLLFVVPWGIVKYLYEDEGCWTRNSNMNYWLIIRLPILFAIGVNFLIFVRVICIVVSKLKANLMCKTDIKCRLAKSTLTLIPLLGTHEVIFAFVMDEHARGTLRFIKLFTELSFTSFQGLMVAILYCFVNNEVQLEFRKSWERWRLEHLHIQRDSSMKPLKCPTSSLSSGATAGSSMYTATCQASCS

SMILES: CC[C@H](C)[C@H](NC(=O)[C@H](Cc1ccccc1)NC(=O)[C@H](CCC(=O)O)NC(=O)[C@H](CCCNC(=N)N)NC(=O)[C@H](C)NC(=O)[C@H](C)NC(=O)[C@H](CCC(N)=O)NC(=O)[C@H](CCC(=O)O)NC(=O)[C@H](CCC(=O)O)NC(=O)[C@H](CC(C)C)NC(=O)[C@H](Cc1ccc(O)cc1)NC(=O)[C@H](CCCCNC(=O)COCCOCCNC(=O)COCCOCCNC(=O)CC[C@H](NC(=O)[C@H]1CC[C@H](CNC(=O)CCCCCCCCCCCCCCCCCCC(=O)O)CC1)C(=O)O)NC(=O)[C@H](CO)NC(=O)[C@@H](NC(=O)[C@H](CC(=O)O)NC(=O)[C@H](CO)NC(=O)[C@@H](NC(=O)[C@H](Cc1ccccc1)NC(=O)[C@@H](NC(=O)CNC(=O)[C@H](CCC(=O)O)NC(=O)C(C)(C)NC(=O)[C@@H](N)Cc1c[nH]cn1)[C@@H](C)O)[C@@H](C)O)C(C)C)C(=O)N[C@@H](C)C(=O)N[C@@H](Cc1c[nH]c2ccccc12)C(=O)N[C@@H](CC(C)C)C(=O)N[C@H](C(=O)N[C@@H](CCCNC(=N)N)C(=O)NCC(=O)N[C@@H](CCCNC(=N)N)C(=O)NCC(=O)NCC(=O)NCC(=O)NCC(=O)N[C@@H](CO)C(=O)N[C@@H](CCCCNC(=O)COCCOCCNC(=O)COCCOCCNC(=O)CC[C@H](NC(=O)[C@H]1CC[C@H](CNC(=O)CCCCCCCCCCCCCCCCCCC(=O)O)CC1)C(=O)O)C(=O)O)C(C)C [Example 6] (H-H[Aib]EGTFTSDVSK([AEEA-AEEA-γGlu-Trx-C20 diacid])YLEEQAAREFIAWLVRGRGGGGSK([AEEA-AEEA-γGlu-Trx-C20 diacid])-OH)
- IC50 [1, 4]: ≥ 1000 nM
- IC50 [1, 5]: 1 nM
- EC50 [2]: 0.093 nM
- half-life [3]: 4.12 days

SMILES: CC[C@H](C)[C@H](NC(=O)[C@H](Cc1ccccc1)NC(=O)[C@H](CCC(=O)O)NC(=O)[C@H](CCCNC(=N)N)NC(=O)[C@H](C)NC(=O)[C@H](C)NC(=O)[C@H](CCC(N)=O)NC(=O)[C@H](CCC(=O)O)NC(=O)[C@H](CCC(=O)O)NC(=O)[C@H](CC(C)C)NC(=O)[C@H](Cc1ccc(O)cc1)NC(=O)[C@H](CO)NC(=O)[C@H](CO)NC(=O)[C@@H](NC(=O)[C@H](CC(=O)O)NC(=O)[C@H](CO)NC(=O)[C@@H](NC(=O)[C@H](Cc1ccccc1)NC(=O)[C@@H](NC(=O)CNC(=O)[C@H](CCC(=O)O)NC(=O)C(C)(C)NC(=O)[C@@H](N)Cc1c[nH]cn1)[C@@H](C)O)[C@@H](C)O)C(C)C)C(=O)N[C@@H](C)C(=O)N[C@@H](Cc1c[nH]c2ccccc12)C(=O)N[C@@H](CC(C)C)C(=O)N[C@H](C(=O)N[C@@H](CCCNC(=N)N)C(=O)NCC(=O)N[C@@H](CCCNC(=N)N)C(=O)NCC(=O)N[C@@H](CCCCNC(=O)COCCOCCNC(=O)COCCOCCNC(=O)CC[C@H](NC(=O)[C@H]1CC[C@H](CNC(=O)CCCCCCCCCCCCCCCCCCCCC(=O)O)CC1)C(=O)O)C(=O)NCC(=O)NCC(=O)N[C@@H](CO)C(=O)N[C@@H](CCCCNC(=O)COCCOCCNC(=O)COCCOCCNC(=O)CC[C@H](NC(=O)[C@H]1CC[C@H](CNC(=O)CCCCCCCCCCCCCCCCCCCCC(=O)O)CC1)C(=O)O)C(=O)O)C(C)C [Example 9] (H-H[Aib]EGTFTSDVSSYLEEQAAREFIAWLVRGRGK([AEEA-AEEA-γGlu-Trx-C22 diacid])GGSK([AEEA-AEEA-γGlu-Trx-C22 diacid])-OH)
- IC50 [1, 4]: 21 nM
- IC50 [1, 5]: 1.6 nM
- EC50 [2]: 0.101 nM
- half-life [3]: 6.96 days

SMILES: CC[C@H](C)[C@H](NC(=O)[C@H](Cc1ccccc1)NC(=O)[C@H](CCCCNC(=O)[C@@H](N)CCCCNC(=O)[C@@H](N)CCCCNC(=O)CC[C@H](NC(=O)CCCCCCCCCCCCCCCCCCC(=O)O)C(=O)O)NC(=O)[C@H](CCCNC(=N)N)NC(=O)[C@H](C)NC(=O)[C@H](C)NC(=O)[C@H](CCC(N)=O)NC(=O)[C@H](CCC(=O)O)NC(=O)[C@H](CCC(=O)O)NC(=O)[C@H](CC(C)C)NC(=O)[C@H](Cc1ccc(O)cc1)NC(=O)[C@H](CO)NC(=O)[C@H](CO)NC(=O)[C@@H](NC(=O)[C@H](CC(=O)O)NC(=O)[C@H](CO)NC(=O)[C@@H](NC(=O)[C@H](Cc1ccccc1)NC(=O)[C@@H](NC(=O)CNC(=O)[C@H](CCC(=O)O)NC(=O)C(C)(C)NC(=O)[C@@H](N)Cc1c[nH]cn1)[C@@H](C)O)[C@@H](C)O)C(C)C)C(=O)N[C@@H](C)C(=O)N[C@@H](Cc1c[nH]c2ccccc12)C(=O)N[C@@H](CC(C)C)C(=O)N[C@H](C(=O)N[C@@H](CCCNC(=N)N)C(=O)NCC(=O)N[C@@H](CCCNC(=N)N)C(=O)NCC(=O)NCC(=O)NCC(=O)NCC(=O)N[C@@H](CO)C(=O)N[C@@H](CCCCNC(=O)[C@@H](N)CCCCNC(=O)[C@@H](N)CCCCNC(=O)CC[C@H](NC(=O)CCCCCCCCCCCCCCCCCCC(=O)O)C(=O)O)C(=O)O)C(C)C [Example 8, N{Epsilon-27}-[(2S)-2-amino-6-[[(2S)-2-amino-6-[[(4S)-4-carboxy-4-(19-carboxynonadecanoylamino)butanoyl]amino]hexanoyl]amino]hexanoyl]-[Aib8,Glu22,Arg26,Lys27,Arg34]-GLP-1-(7-37)-peptidyl-Gly-Gly-Gly-Ser-N{Epsilon}[(2S)-2-amino-6-[[(2S)-2-amino-6-[[(4S)-4-carboxy-4-(19-carboxynonadecanoylamino)butanoyl]amino]hexanoyl]amino]hexanoyl]Lys] (H-H[Aib]EGTFTSDVSSYLEEQAARK([εLys-εLys-γGlu-C20 diacid])FIAWLVRGRGGGGSK([εLys-εLys-γGlu-C20 diacid])-OH)
- IC50 ([1]; high serum albumin (2.0% HSA final assay concentration), read-out: High HSA IC50): 383 nM
- IC50 ([1]; low serum albumin (max. 0.001% final assay concentration), read-out: Low HSA IC50): 0.43 nM
- EC50 [2]: 0.26 nM
- half-life [3]: 5.71 days

SMILES: CC[C@H](C)[C@H](NC(=O)[C@H](Cc1ccccc1)NC(=O)[C@H](CCC(=O)O)NC(=O)[C@H](CCCNC(=N)N)NC(=O)[C@H](C)NC(=O)[C@H](C)NC(=O)[C@H](CCC(N)=O)NC(=O)[C@H](CCC(=O)O)NC(=O)[C@H](CCC(=O)O)NC(=O)[C@H](CC(C)C)NC(=O)[C@H](Cc1ccc(O)cc1)NC(=O)[C@H](CO)NC(=O)[C@H](CO)NC(=O)[C@@H](NC(=O)[C@H](CC(=O)O)NC(=O)[C@H](CO)NC(=O)[C@@H](NC(=O)[C@H](Cc1ccccc1)NC(=O)[C@@H](NC(=O)CNC(=O)[C@H](CCC(=O)O)NC(=O)C(C)(C)NC(=O)[C@@H](N)Cc1c[nH]cn1)[C@@H](C)O)[C@@H](C)O)C(C)C)C(=O)N[C@@H](C)C(=O)N[C@@H](Cc1c[nH]c2ccccc12)C(=O)N[C@@H](CC(C)C)C(=O)N[C@H](C(=O)N[C@@H](CCCNC(=N)N)C(=O)NCC(=O)N[C@@H](CCCNC(=N)N)C(=O)NCC(=O)N[C@@H](CCCCNC(=O)COCCOCCNC(=O)COCCOCCNC(=O)CC[C@H](NC(=O)[C@H]1CC[C@H](CNC(=O)CCCCCCCCCCCCCCCCCCC(=O)O)CC1)C(=O)O)C(=O)NCC(=O)NCC(=O)N[C@@H](CO)C(=O)N[C@@H](CCCCNC(=O)COCCOCCNC(=O)COCCOCCNC(=O)CC[C@H](NC(=O)[C@H]1CC[C@H](CNC(=O)CCCCCCCCCCCCCCCCCCC(=O)O)CC1)C(=O)O)C(=O)O)C(C)C [Example 3] (H-H[Aib]EGTFTSDVSSYLEEQAAREFIAWLVRGRGK([AEEA-AEEA-γGlu-Trx-C20 diacid])GGSK([AEEA-AEEA-γGlu-Trx-C20 diacid])-OH)
- IC50 [1, 4]: 185 nM
- IC50 [1, 5]: 1.2 nM
- EC50 [2]: 0.043 nM
- half-life [3]: 6.12 days
